The text below walks through data of ChEMBL document CHEMBL1201862, “PubChem BioAssay data set” (2004).

SMILES strings stand for the structures.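 Tested at 5 concentrations; 48 h exposure; 96-well plates; endpoints linearly interpolated, else capped at highest concentration. At the GI50, growth is halved.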 Active and inactive are the calls of the source. No stated cut-off is given here; in the data, active = GI50 up to about 1.1 µM and inactive = higher. A value given as a limit tells only on which side of the number the result lay.

Test in all cases: NCI anticancer screen, dose series, 48 h
Experiment [1] deals with A498.
In experiment [2] the test system is CAKI-1.
For experiment [3], the system named is HCT-15.
The test system of experiment [4] is K562.
Experiment [5] deals with KM12.
Experiment [6] relates to M14.
Experiment [7] concerns MOLT-4.
Experiment [8] concerns Malme-3M.
In experiment [9] the test system is NCI-H460.
Experiment [10] has as its system OVCAR-4.
Experiment [11] has as its system SF-268.
In experiment [12] the test system is SK-MEL-2.
Experiment [13] has as its system SK-MEL-5.
Experiment [14] deals with SN12C.
The subject of experiment [15] is SW-620.
Experiment [16] deals with U-251.
The subject of experiment [17] is LOX IMVI.
The subject of experiment [18] is HCC 2998.

Turning to `COC(=O)CSc1nnc(-c2ccccc2)[nH]1`, the GI50 was > 100 µM (inactive) in experiment [1]; > 100 µM (inactive) in experiment [2]; > 100 µM in [3]; > 100 µM (inactive) in experiment [4]; > 100 µM (inactive) in [5]; > 100 µM (inactive) in experiment [6]. Moreover, the GI50 is 16.4 µM (inactive) in experiment [7]; > 100 µM (inactive) in experiment [8]; > 100 µM (inactive) in [9]; > 100 µM (inactive) in experiment [10]; > 100 µM (inactive) in experiment [11]; > 100 µM (inactive) in [12]. Further, the GI50 in experiment [13], in experiment [14], in [15] and in experiment [16] was > 100 µM (inactive) each time.
As to `COc1ccc(C2S/C(=C\c3ccccc3O)C(=O)N2NC(=O)Cc2ccccc2)cc1` (configuration not stated), the GI50 in [1] is > 100 µM (inactive); in [2] it was > 100 µM (inactive); in experiment [3] it was > 100 µM; in [4] it was 68.5 µM (inactive); in experiment [5], > 100 µM (inactive); in experiment [17], > 100 µM (inactive). The GI50 was > 100 µM (inactive) in [6]; 39.5 µM (inactive) in [7]; > 100 µM (inactive) in [8]; > 100 µM (inactive) in experiment [9]; > 100 µM (inactive) in experiment [10]; > 100 µM (inactive) in experiment [11]. Also, the GI50 in experiment [12], in [13], in experiment [14], in [15] and in experiment [16] was > 100 µM (inactive) in each case.
Take `CCCCCCCCCCC(O)CCCCCCC(=O)O` (configuration not stated): the GI50 was 23.2 µM (inactive) in [1]; 36.3 µM (inactive) in experiment [2]; 13.2 µM (inactive) in [4]; 16.3 µM (inactive) in experiment [5]; 15.8 µM (inactive) in [17]; 19.1 µM (inactive) in [6]. For the same molecule, the GI50 in experiment [7] is 12.7 µM (inactive); in [8], 26.2 µM (inactive); in experiment [9] it was 16.3 µM (inactive); in [10], 39.1 µM (inactive); in experiment [11], 77.4 µM (inactive); in [12], 47.9 µM (inactive). For the same molecule, the GI50 in [13] is 16 µM (inactive); in [14], 21.1 µM (inactive); in [15] it was 29.9 µM (inactive); in experiment [16], 14.9 µM (inactive).
For `NC(C(=O)O)c1ccc(C(=O)O)cc1` (configuration not stated), the GI50 in [2] was > 100 µM (inactive); in [18] it was > 100 µM (inactive); in [3], > 100 µM; in experiment [4] it was > 100 µM (inactive); in experiment [5], > 100 µM (inactive); in experiment [17], > 100 µM (inactive). In addition, the GI50 in experiment [6], in experiment [7], in experiment [8], in [9], in [10] and in experiment [11] was > 100 µM (inactive) each time. Also, the GI50 in experiment [12], in experiment [13], in experiment [14], in experiment [15] and in experiment [16] was > 100 µM (inactive) each time.
Turning to `COc1ccc(/C=N/NC(=O)CSc2nc(-c3ccccc3)c(-c3ccccc3)[nH]2)cc1OC`, the GI50 was 26.6 µM (inactive) in [1]; 33.1 µM (inactive) in experiment [2]; 26.9 µM in experiment [3]; 17.2 µM (inactive) in experiment [5]; 20.5 µM (inactive) in experiment [17]; 17.7 µM (inactive) in experiment [6]. For the same molecule, the GI50 was 16 µM (inactive) in experiment [7]; 19.5 µM (inactive) in experiment [8]; 28.6 µM (inactive) in [9]; 31.3 µM (inactive) in [10]; 50 µM (inactive) in [11]; 20.7 µM (inactive) in experiment [12]. The GI50 in experiment [13] was 17.5 µM (inactive); in experiment [14], 30.1 µM (inactive); in experiment [15], 29.9 µM (inactive); in [16] it was 25.6 µM (inactive).
